Reference: patent publication US20190255011A1, “INHIBITION OF TUMOUR CELL MIGRATION” (GW Pharma Limited, priority 2004, published 2019)

Experiments:
[1] = system: U87 human glioma cells; assay: cell viability at the concentrations used in the migration assay; assay type: cell-based; settings: range of CBD concentrations used (0.01 μM to 9 μM)
[2] = system: U87 human glioma cells; assay: cell migration assay in modified Boyden chamber; assay type: cell-based
Description: Cannabidiol (CBD) in the form of a botanical drug substance was dissolved in ethanol to a concentration of 100 mM this was stored at −20° C. until required.
Before use the CBD was further diluted with tissue culture medium to the desired concentration, ensuring that the concentration of ethanol was below 0.001%.
U87 human glioma cells were used throughout this experiment. The cells were maintained at 37° C. in a humidified atmosphere with 5% CO2 and 95% air.
Cells were cultured in a 75 cm^2 culture flask in Dulbecco's Modified Eagle Medium (DMEM), which had been supplemented with 4 mM L-glutamine, 100 units/ml penicillin, […], 1% sodium pyruvate, 1% non-essential amino acids and 10% heat-inactivated fetal bovine serum.
A cell migration assay was undertaken with the U87 cells in a 48 well, modified Boyden chamber in which upper and lower compartments were separated by a polycarbonate filter with a pore diameter of 8 μm coated with 15 μg/ml of fibronectin. Conditioned medium (CM) served as a chemoattractant. The CM was made by incubating a subconfluent culture of U87 cells with complete medium for 3 days.
The coated filter was placed over the bottom chamber, which contained the conditioned medium. Serum-free medium was used as a negative control.
U87 cells were treated with either CBD or vehicle for 30 minutes and then seeded in the upper chamber at a concentration of 3×10^4 cells per well and incubated for 6 hours at 37° C.
After the incubation the non-migrated cells on the upper surface of the filter were removed by scraping and the migrated cells on the lower side of the filter were stained with Diff-Quick Stain. Between 5 and 8 unit fields per filter were counted at 400× magnification.
As is shown in FIG. 1 cells were exposed to an increased concentration of CBD in a range starting from 0.01 μM to 9 μM and their migration was evaluated after 6 hours. The degree of inhibition of cell migration is expressed as a percentage of inhibition versus vehicle treatment (maximal stimulation).

[3] = system: U373 human glioma cell line; settings: cited from earlier work
[4] = system: U87 human glioma cells subcutaneously implanted to nude mice; settings: cited from earlier work
[5] = system: U87 human glioma cell line; settings: cited from earlier work
[6] = system: U87 human glioma cells; assay: cell migration assay with pre-treatment by CB1 and CB2 receptor antagonists; assay type: cell-based; settings: antagonist 0.1 μM and 1 μM, 30 minutes pre-treatment, then CBD 6 μM
Description: In order to determine whether the CBD-induced inhibition of cell migration as described in Example 1 above was dependant on the stimulation of these receptors the cell migration assay was performed with specific antagonists selective to CB1 and CB2 receptors. These are SR141716A and SR144528 respectively.
U87 human glioma cells were firstly pre-treated with the antagonists for 30 minutes and then treated with the CBD for an additional 30 minutes before seeding in the upper chamber of the Boyden chamber.
The cell migration assay was performed using a CBD concentration of 6 μM (shown in Example 1 to inhibit 50% migration. The CB1 and CB2 receptor antagonists were tested at concentrations of 0.1 μM and 1 μM, at these concentrations cell viability was not affected.

Compound | cell viability [1] | inhibition of migration ([2]; CBD added to culture medium of U87 cells) | inhibition at 6 µM ([2]; Homo sapiens, Glioma cell, CBD concentration of 6 μM) | IC50 ([2]; Homo sapiens, U-87 MG, U87 cells, CBD 0.01 μM to 9 μM, migration evaluated after 6 hours, versus vehicle treatment, read-out: IC50 of inhibition of cell migration) | anti-proliferative effects in-vitro [3] | anti-proliferative effects in-vivo [4] | anti-proliferative effects in-vitro [5] | effect of antagonist pre-treatment on CBD-induced inhibition of migration [6]
C=C(C)[C@@H]1CCC(C)=C[C@H]1c1c(O)cc(CCCCC)cc1O [CBD, cannabidiol] | did not alter cell viability | concentration-dependant inhibition of migration | 50% | 5.05 ± 1.1 µM | anti-proliferative effects | anti-proliferative effects | anti-proliferative effects | –
Cc1c(C(=O)NN2CCCCC2)nn(-c2ccc(Cl)cc2Cl)c1-c1ccc(Cl)cc1 [SR141716] | – | – | – | – | – | – | – | not prevented
SR144528 | – | – | – | – | – | – | – | not prevented
